Data as given in patent US9974768B2, “Pharmaceutical for improving dysphagia” (MEIJI SEIKA PHARMA CO., LTD., priority 2013, dated 2018).
Entries after “also recorded” stand apart in the source; their conditions may differ.

Assays:
Hartley guinea pigs = assay: Swallowing reflex decrease by repeated administrations of haloperidol (water drinking frequency); format: in vivo, guinea pig; conditions: haloperidol 1 mg/kg s.c. twice per day for 7 days, compared to physiological saline group
Description: To 6 week-old female Hartley guinea pigs (330 to 390 g) habituated for 1 week after receipt, a physiological saline solution, or a haloperidol solution was injected subcutaneously in a dosage of 1 mg/kg approx. every 12 hours twice per day for 7 days. Thereafter, a guinea pig was fixed at extremities, and 500 μL of distilled water was injected over 5 sec through a device to a part just before the pharynx, and the total frequency of swallowing until 10 sec and 30 sec from the injection was measured based on a muscle movement in a pharyngeal site. Thereafter a physiological saline solution, or a haloperidol solution was injected again (1 mg/kg).
The measurements were repeated totally 4 times at intervals of 1 min. […] Based on the result, the guinea pig was used as a dysphagia model induced by repeated administrations of haloperidol in the following experiments for evaluation of drug efficacy.

[1] = test system: guinea pig dysphagia model induced by repeated administrations of haloperidol; assay: Swallowing reflex improvement in guinea pig dysphagia model induced by repeated administrations of haloperidol (water drinking frequency); format: in vivo
normal guinea pig = assay: Swallowing reflex in normal guinea pig after local pharyngeal administration of substance P receptor antagonist FK888; format: in vivo
Description: FIG. 4 is a graph showing the results of a study of decrease in a swallowing reflex in a normal guinea pig by local administration to a pharyngeal site of a substance P receptor antagonist, and an improving effect by a prior local administration to the pharyngeal site of a captopril aqueous solution in Example 3.
FK888 (10 μM, 50 μL/guinea pig), which is a substance P receptor antagonist, was administered locally with a spray device to a pharyngeal site of a guinea pig, and water drinking reflection frequency was measured in the same way as in Experiment 1.

[2] = test system: blood pressure increase induced by angiotensin I; assay: Blood pressure increase induced by intravenous angiotensin I in normal rat; conditions: angiotensin I 300 ng/kg i.v. after 1 hour
Description: The respective dose of a captopril, or lisinopril aqueous solution was administered orally and the blood pressures were measured after 1 hour. Thereafter, angiotensin I was administered intravenously (300 ng/kg) to induce blood pressure increase and a change in the mean blood pressure was measured.

SMILES: O=C(CCCN1CCC(O)(c2ccc(Cl)cc2)CC1)c1ccc(F)cc1 [haloperidol]
- water drinking frequency (Hartley guinea pigs): significantly decreased

SMILES: C[C@H](CS)C(=O)N1CCC[C@H]1C(=O)O [captopril]
- water drinking frequency ([1]; 100 μL of 50 μM aqueous solution, single spray to pharyngeal mucosa, 30 min after administration): significant increase; also recorded: exhibited an improving effect on dysphagia
- water drinking frequency ([1]; 100 μL of 50 mM aqueous solution, single spray to pharyngeal mucosa, 30 min after administration): significant increase; also recorded: exhibited an improving effect on dysphagia
- water drinking frequency (dysphagia improving effect) ([1]; oral (intragastric) administration, same dose as 100 μL of 50 μM solution, 30 min after administration): did not exert an influence
- water drinking frequency (dysphagia improving effect) ([1]; oral (intragastric) administration, same dose as 100 μL of 50 mM solution, 30 min after administration): did not exert an influence
- decrease in swallowing reflex by FK888 administration (normal guinea pig; captopril aqueous solution sprayed to pharyngeal site in a single dose 30 min before FK888): suppressed

SMILES: CN(Cc1ccccc1)C(=O)[C@H](Cc1ccc2ccccc2c1)NC(=O)[C@@H]1C[C@@H](O)CN1C(=O)c1cn(C)c2ccccc12 [FK888]
- increase in water drinking frequency by lisinopril (50 nM, 100 μL) ([1]; FK888 10 nM, 100 μL sprayed to pharyngeal mucosa 15 min after lisinopril administration): almost completely suppressed
- influence on swallowing reflex (normal guinea pig; FK888 10 nM, 100 μL, local, stated as lower limit): not influencing swallowing reflex
- swallowing reflex (water drinking reflection frequency) (normal guinea pig; FK888 10 μM, 50 μL/guinea pig, single local spray to pharyngeal site): decrease in swallowing reflex

SMILES: NCCCC[C@H](N[C@@H](CCc1ccccc1)C(=O)O)C(=O)N1CCC[C@H]1C(=O)O [lisinopril]
- dose (solution concentration) with significant increase in water drinking frequency ([1]; 100 μL aqueous solution, single spray to pharyngeal mucosa): ≥ 50 nM
- water drinking frequency ([1]; 100 μL of 0.5 nM to 500 μM aqueous solution, single spray to pharyngeal mucosa): dose-dependent increase
- water drinking frequency ([1]; 100 μL of 50 nM aqueous solution, single spray to pharyngeal mucosa, 30 min after administration): increase in water drinking frequency
- dose per administration giving dysphagia improving effect in a human ([1]; converted for a human having an average body weight of 60 kg): ≥ 300 ng
- dysphagia improvement effective dose based on body weight ([1]; converted from effective dose obtained in Examples): 0.005 µg/kg
- water drinking frequency (dysphagia improving effect) ([1]; local administration of 100 μL of 50 μM aqueous solution to pharyngeal mucosa, 2 hours after administration): exhibited an improving effect on dysphagia
- water drinking frequency (dysphagia improving effect) ([1]; oral (intragastric) administration of same dose as local (100 μL of 50 mM solution), 2 hours after administration): exerted no influence; also recorded: no dysphagia improving effect was observed
- vasopressor reaction by administration of angiotensin I (change in mean blood pressure) ([2]; 100 μL of 5 μM aqueous solution orally): had no influence
- vasopressor reaction by administration of angiotensin I (change in mean blood pressure) ([2]; 100 μL of 5 mM aqueous solution orally): suppressed a vasopressor reaction
